The values that follow come from paper PMC10484568 (Chemical communications (Cambridge, England), 2019).

Some test systems named below: E. coli; MRSE; P. aeruginosa; MRSA.
Assay type in all cases: cell-based
The nature of another data set: Hemolytic activity.

≈ marks a conversion by molar mass, not a printed value. Where a SMILES comes first, the peptide text is derived from it. Bridges are numbered along the chain shown (N, C = ends). [ ]: non-standard residue; d: D form. The star is where a group is joined. X1 = CC[C@H](C)CCCCC(=O)*; Dab = NCC[C@H](N)C(=O)O

The compound `CC[C@H](C)CCCCC(=O)N[C@@H](CCN)C(=O)N[C@H](C(=O)N[C@@H](CCN)C(=O)N[C@H]1CCNC(=O)[C@H]([C@@H](C)O)NC(=O)[C@H](CCN)NC(=O)[C@H](CCN)NC(=O)[C@H](CC(C)C)NC(=O)[C@@H](CC(C)C)NC(=O)[C@H](CCN)NC1=O)[C@@H](C)O` [Colistin, colistin] (X1-[Dab]T[Dab][Dab][Dab][dL]L[Dab][Dab]T; lactam 4-C (inferred); N-terminus assumed) came in with an HC50 in the data set “Hemolytic activity” of over 250 µg/mL. Further, the “MIC E. coli (Gram negative)” value with E. coli is 0.5 µg/mL (≈ 0.428 µM). Besides, the “MIC MRSE (Gram positive)” value against MRSE is over 50 µg/mL. Further, the “MIC P. aeruginosa (Gram negative)” value in the data set with P. aeruginosa was found to be 0.5 µg/mL (≈ 0.428 µM). Also, the “Activity against MRSA (in words)” value in the data set on MRSA is “not active”. Besides, the “MIC MRSA (Gram positive)” value in the data set with MRSA (multidrug resistant strain) is over 50 µg/mL.
